For two molecules, TGI results are on record in PubChem BioAssay (NCI).

This assay relates to P388/ADR leukemia. Nature of the assay: NCI tumour cell line growth inhibition, 48 h.

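How tested: cells in 96-well plates exposed to compound for 48 hours at five concentrations. At the TGI there is no net growth.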

`COC1/C=C/O[C@@]2(C)Oc3c(C)c(O)c4c(O)c(cc(O)c4c3C2=O)NC(=O)/C(C)=C\C=C\[C@H](C)C(O)[C@@H](C)[C@@H](O)[C@@H](C)[C@H](OC(C)=O)[C@@H]1C` (some centres not stated) yielded a TGI of 59 µM.
With `O=C(Cn1ccnc1[N+](=O)[O-])N(CCO)CCO` the figure was over 1250 µM.
